Assay results: patent publication US20090012165A1, “PHARMACEUTICAL COMBINATION OF NSAID AND PROSTAGLANDIN COMPOUND” (priority 2007, published 2009)

Tested on: naproxen-induced gastric ulcer
Experiment: naproxen-induced gastric ulcer in rats (ulcer index 5 hours after oral dosing)
Assay type: in vivo, Male Crl: CD (SD) rats
Details: for Ulcer Index (Mean ± S.E.): rats; for % Inhibition of ulcer index: vs vehicle + naproxen group
Experimental: Male Crl: […] The animal was euthanized by cervical dislocation 5 hours after administration of the dosing preparation, and the stomach was removed. The stomach was filled with 10 mL of saline and fixed in 1% formalin. Then the stomach was opened along the greater curvature and gently washed with saline. The length of the major axis of each gastric ulcer was measured with digital slide gauges, and the total length of the major axes of all gastric ulcers (ulcer index) was obtained.

## COc1ccc2cc([C@H](C)C(=O)O)ccc2c1 [naproxen, reference compound]
Vehicle (0.01% Tween 80) + naproxen 200 mg/kg oral, 5 hours after administration, n=10
  Ulcer Index (Mean ± S.E.): 81.48 ± 15.05

## Cc1c(OCC(F)(F)F)ccnc1C[S+]([O-])c1nc2ccccc2[nH]1 (stereo not shown) [Lansoprazole, lansoprazole, reference compound]
Lansoprazole 1000 μg/kg + naproxen 200 mg/kg oral, 5 hours
  Ulcer Index (Mean ± S.E.): 68.09 ± 7.61
Lansoprazole 1000 μg/kg + naproxen 200 mg/kg
  % Inhibition of ulcer index: 16%
Lansoprazole 1000 μg/kg with naproxen
  effect on naproxen-induced gastric ulcers (in words): did not have a significant effect

## CC[C@H](C)CC(F)(F)C(=O)CC[C@H]1[C@H](O)CC(=O)[C@@H]1CCCCCCC(=O)O [Compound A, 13,14-dihydro-15-keto-16,16-difluoro-18(S)-methyl-PGE1]
Compound A 1 μg/kg + naproxen 200 mg/kg oral, 5 hours
  Ulcer Index (Mean ± S.E.): 63.47 ± 10.87
Compound A 1 μg/kg + naproxen 200 mg/kg
  % Inhibition of ulcer index: 22%
Compound A 10 μg/kg + naproxen 200 mg/kg oral, 5 hours, p<0.05 vs vehicle + naproxen
  Ulcer Index (Mean ± S.E.): 12.15 ± 3.45
Compound A 10 μg/kg + naproxen 200 mg/kg
  % Inhibition of ulcer index: 85%
Compound A 10 μg/kg and 100 μg/kg + naproxen 200 mg/kg groups compared to vehicle + naproxen group
  reduction of ulcer formation, significance (in words): Significant reductions of ulcer formation
Compound A 100 μg/kg + naproxen 200 mg/kg oral, 5 hours, p<0.01 vs vehicle + naproxen
  Ulcer Index (Mean ± S.E.): 0.50 ± 0.40
Compound A 100 μg/kg + naproxen 200 mg/kg
  % Inhibition of ulcer index: 99.4%
Compound A at 1, 10 and 100 μg/kg with naproxen 200 mg/kg, dose-dependent
  ulcer formation induced by naproxen (in words): reduced
Overall conclusion of Example 1
  protective effect against ulcer formation in combination with NSAID (in words): potent protective effect against ulcer formation
